ChEMBL document CHEMBL4257548, “Phenothiazine antioxidants increase mitochondrial biogenesis and frataxin levels in Friedreich's ataxia cells” (Medchemcomm, 2018)
Active and inactive are the calls of the source. The rule behind the calls is not given here.

Key:
GM15850 [1] = experiment: Cytoprotection against DEM-induced toxicity in human GM15850 cells assessed as increase in cell viability at 0.1 to 2.5 uM pretreated for 16 hrs followed by DEM addition and measured after 5 hrs by live/dead staining based flow cytometry; type: functional
GM16216 [2] = experiment: Induction of mitochondrial biogenesis in human GM16216 cells assessed as ratio of COX1 to SDH-A protein levels at 250 after 24 hrs by ELISA relative to control; type: functional
GM15850 [3] = experiment: Induction of mitochondrial biogenesis in human GM15850 cells assessed as ratio of COX1 to SDH-A protein levels at 250 after 24 hrs by ELISA relative to control; type: functional
GM15850 [4] = experiment: Effect on frataxin expression in human GM15850 cells at 250 nM after 24 hrs by ELISA relative to control; type: functional
GM15850 [5] = experiment: Restoration of total aconitase activity in human GM15850 cells at 50 nM after 5 days by colorimetric method relative to control; type: functional
GM16216 [6] = experiment: Restoration of total aconitase activity in human GM16216 cells at 50 nM after 5 days by colorimetric method relative to control; type: functional
GM16216 [7] = experiment: Induction of mitochondrial biogenesis in human GM16216 cells assessed as ratio of COX1 to SDH-A protein levels at 250 after 48 hrs by ELISA relative to control; type: functional
GM15850 [8] = experiment: Effect on frataxin expression in human GM15850 cells at 50 nM after 24 hrs by ELISA relative to control; type: functional
GM15850 [9] = experiment: Restoration of total aconitase activity in human GM15850 cells at 250 nM after 5 days by colorimetric method relative to control; type: functional
GM15850 [10] = experiment: Effect on mitochondrial membrane potential in human GM15850 cells assessed as loss of mitochondrial membrane potential at 0.25 uM after 16 hrs by JC1 staining based flow cytometry (reference value: 13%); type: functional
GM16216 [11] = experiment: Induction of mitochondrial biogenesis in human GM16216 cells assessed as ratio of COX1 to SDH-A protein levels at 50 after 24 hrs by ELISA relative to control; type: functional
GM16216 [12] = experiment: Restoration of total aconitase activity in human GM16216 cells at 250 nM after 5 days by colorimetric method relative to control; type: functional
GM15850 [13] = experiment: Effect on mitochondrial membrane potential in human GM15850 cells assessed as intact mitochondrial membrane at 0.25 uM after 16 hrs by JC1 staining based flow cytometry (reference value: 87%); type: functional
GM16216 [14] = experiment: Effect on mitochondrial membrane potential in human GM16216 cells assessed as intact mitochondrial membrane at 0.25 uM after 16 hrs by JC1 staining based flow cytometry (reference value: 87%); type: functional
GM15850 [15] = experiment: Induction of mitochondrial biogenesis in human GM15850 cells assessed as ratio of COX1 to SDH-A protein levels at 50 after 24 hrs by ELISA relative to control; type: functional
GM16216 [16] = experiment: Cytoprotection against DEM-induced toxicity in human GM16216 cells assessed as increase in cell viability at 0.1 to 2.5 uM pretreated for 16 hrs followed by DEM addition and measured after 5 hrs by live/dead staining based flow cytometry; type: functional
GM16216 [17] = experiment: Effect on frataxin expression in human GM16216 cells at 50 nM after 48 hrs by ELISA relative to control; type: functional
GM15850 [18] = experiment: Induction of mitochondrial biogenesis in human GM15850 cells assessed as ratio of COX1 to SDH-A protein levels at 250 after 48 hrs by ELISA relative to control; type: functional
GM16216 [19] = experiment: Effect on frataxin expression in human GM16216 cells at 250 nM after 48 hrs by ELISA relative to control; type: functional
GM16216 [20] = experiment: Effect on frataxin expression in human GM16216 cells at 250 nM after 24 hrs by ELISA relative to control; type: functional
GM16216 [21] = experiment: Effect on mitochondrial membrane potential in human GM16216 cells assessed as loss of mitochondrial membrane potential at 0.25 uM after 16 hrs by JC1 staining based flow cytometry (reference value: 13%); type: functional
GM16216 [22] = experiment: Induction of mitochondrial biogenesis in human GM16216 cells assessed as ratio of COX1 to SDH-A protein levels at 50 after 48 hrs by ELISA relative to control; type: functional
GM15850 [23] = experiment: Induction of mitochondrial biogenesis in human GM15850 cells assessed as ratio of COX1 to SDH-A protein levels at 50 after 48 hrs by ELISA relative to control; type: functional
GM15850 [24] = experiment: Effect on frataxin expression in human GM15850 cells at 250 nM after 48 hrs by ELISA relative to control; type: functional
GM15850 [25] = experiment: Effect on frataxin expression in human GM15850 cells at 50 nM after 48 hrs by ELISA relative to control; type: functional
GM16216 [26] = experiment: Effect on frataxin expression in human GM16216 cells at 50 nM after 24 hrs by ELISA relative to control; type: functional
GM15850 [27] = experiment: Cytotoxicity against human GM15850 cells at 0.25 to 2.5 uM after 24 to 48 hrs by live/dead staining-based flow cytometry; type: cell-based; conditions: gm15850, 2.5 µM
GM15850 [28] = experiment: Inhibition of ATP production in human GM15850 cells at 2.5 uM after 24 hrs by Vialight reagent based luminescence assay; type: functional, cell-based
GM15850 [29] = experiment: Increase in frataxin expression in human GM15850 cells at 50 to 250 nM after 24 to 48 hrs by ELISA; type: functional, cell-based
GM16216 [30] = experiment: Inhibition of ATP production in human GM16216 cells at 2.5 uM after 24 hrs by Vialight reagent based luminescence assay; type: functional, cell-based
GM16216 [31] = experiment: Cytotoxicity against human GM16216 cells at 0.25 to 2.5 uM after 24 to 48 hrs by live/dead staining-based flow cytometry; type: cell-based; conditions: gm16216, 2.5 µM
GM15850 [32] = experiment: Increase in ATP production in human GM15850 cells at 0.1 to 0.5 uM after 24 hrs by Vialight reagent based luminescence assay; type: functional, cell-based
GM15850 [33] = experiment: Restoration of total aconitase activity in human GM15850 cells after 5 days by colorimetric method; type: functional, cell-based
GM16216 [34] = experiment: Induction of mitochondrial biogenesis in human GM16216 cells assessed as increase in ratio of COX1 to SDH-A protein levels at 50 to 250 nM after 24 to 48 hrs by ELISA; type: functional, cell-based
GM15850 [35] = experiment: Induction of mitochondrial biogenesis in human GM15850 cells assessed as increase in ratio of COX1 to SDH-A protein levels at 50 to 250 nM after 24 to 48 hrs by ELISA; type: functional, cell-based
GM16216 [36] = experiment: Cytoprotection against DEM-induced toxicity in human GM16216 cells assessed as increase in cell viability pretreated for 16 hrs followed by DEM addition and measured after 5 hrs by live/dead staining based flow cytometry; type: functional
GM16216 [37] = experiment: Increase in frataxin expression in human GM16216 cells at 50 to 250 nM after 24 to 48 hrs by ELISA; type: functional, cell-based
GM16216 [38] = experiment: Increase in ATP production in human GM16216 cells at 0.1 to 0.5 uM after 24 hrs by Vialight reagent based luminescence assay; type: functional, cell-based
GM15850 [39] = experiment: Cytoprotection against DEM-induced toxicity in human GM15850 cells assessed as increase in cell viability pretreated for 16 hrs followed by DEM addition and measured after 5 hrs by live/dead staining based flow cytometry; type: functional

With CN(C)c1ccc2nc3ccc(=O)cc-3sc2c1 the Activity (GM15850 [1]) was “Active”, the Activity (GM16216 [2]) was 117% and the Activity (GM15850 [3]) was 117%. The Activity (GM15850 [4]) was 114%, the Activity (GM15850 [5]) was 110% and the Activity (GM16216 [6]) was 110%. For the same compound, the Activity (GM16216 [7]) was 131%, the Activity (GM15850 [8]) was 111% and the Activity (GM15850 [9]) was 113%. For the same compound, the Activity (GM15850 [10]) was 15%, the Activity (GM16216 [11]) was 115% and the Activity (GM16216 [12]) was 113%. It also gave an Activity (GM15850 [13]) of 85%, an Activity (GM16216 [14]) of 85% and an Activity (GM15850 [15]) of 115%. The Activity (GM16216 [16]) was “Active”, the Activity (GM16216 [17]) was 113% and the Activity (GM15850 [18]) was 131%. It also gave an Activity (GM16216 [19]) of 115%, an Activity (GM16216 [20]) of 114% and an Activity (GM16216 [21]) of 15%. It also gave an Activity (GM16216 [22]) of 122%, an Activity (GM15850 [23]) of 122% and an Activity (GM15850 [24]) of 115%. It also gave an Activity (GM15850 [25]) of 113% and an Activity (GM16216 [26]) of 111%.
In the case of CCCCCCCCCCCCCCCCc1cc2nc3ccc(N(C)C)cc3sc-2cc1=O, the Activity (GM16216 [2]) is reported as 132%, the Activity (GM15850 [3]) is reported as 132% and the Activity (GM15850 [4]) is reported as 127%. For the same compound, the Activity (GM15850 [5]) was 121%, the Activity (GM16216 [6]) was 121% and the Activity (GM16216 [7]) was 139%. For the same compound, the Activity (GM15850 [27]) was “Non-Toxic”, the inhibition (GM15850 [28]) was “Active” and the Activity (GM15850 [8]) was 120%. For the same compound, the Activity (GM15850 [9]) was 124%, the Activity (GM15850 [29]) was “Active” and the inhibition (GM16216 [30]) was “Active”. For the same compound, the Activity (GM15850 [10]) was 12%, the Activity (GM16216 [31]) was “Non-Toxic” and the Activity (GM15850 [32]) was “Active”. The Activity (GM15850 [33]) was “Dose-dependent effect”, the Activity (GM16216 [11]) was 127% and the Activity (GM16216 [12]) was 124%. The Activity (GM16216 [34]) was “Active”, the Activity (GM15850 [13]) was 88% and the Activity (GM16216 [14]) was 88%. The Activity (GM15850 [15]) was 127%, the Activity (GM15850 [35]) was “Active” and the Activity (GM16216 [17]) was 124%. For the same compound, the Activity (GM15850 [18]) was 139%, the Activity (GM16216 [36]) was “Dose-dependent effect” and the Activity (GM16216 [19]) was 131%. The Activity (GM16216 [37]) was “Active”, the Activity (GM16216 [38]) was “Active” and the Activity (GM16216 [20]) was 127%. The Activity (GM16216 [21]) was 12%, the Activity (GM16216 [22]) was 132% and the Activity (GM15850 [39]) was “Dose-dependent effect”. It also gave an Activity (GM15850 [23]) of 132%, an Activity (GM15850 [24]) of 131% and an Activity (GM15850 [25]) of 124%. The Activity (GM16216 [26]) was 120%.
